Measured values as given in publication PMC4548311 (Journal of Biomolecular Structure & Dynamics, 2014).

Legend:
[1] = target: R361A mutant NP (Influenza A virus, UniProt P15682, R361A)
[2] = system: influenza A virus; conditions: cited from earlier work

COc1ccc2cc([C@H](C)C(=O)O)ccc2c1 [Naproxen, naproxen]
stabilization of R361A monomers [1]: No stabilization

CCOC(=O)C1=C[C@@H](OC(CC)CC)[C@H](NC(C)=O)[C@@H](N)C1 [tamiflu]
emergence of resistant virus [2]: generated after four passages
